This note sets out measurements from publication PMC12656565, “In Vitro and Ultrastructural Evaluation of the Cytotoxic and Antileishmanial Activities of Thiosemicarbazone Compounds Against Promastigotes and Axenic Amastigotes of Leishmania infantum” (Tropical Medicine and Infectious Disease, 2025).

Data set [1] deals with L. infantum promastigotes. The data set can be described thus: Apoptosis/necrosis by annexin V-FITC and propidium iodide flow cytometry. The following applies: 1× and 2× IC50, 72 h. The class given is cell-based, Leishmania infantum. The protocol:
To evaluate cell death types induced by the compounds, promastigote forms of Leishmania infantum (2 × 10^6 cells/mL) were treated with concentrations corresponding to 1× and 2× IC50 of compounds LT-73 and LT-75 for 72 h. After incubation, cells were centrifuged at 3000× g for 5 min, washed with PBS, and subsequently with 1× Buffer Solution provided by the Annexin V-FITC apoptosis detection kit (BD Biosciences, San Jose, CA, USA). Cells were then resuspended in 100 µL Buffer Solution and stained with 5 µL Annexin V conjugated to FITC, incubated for 15 min at room temperature protected from light. After incubation, cells were washed again with 1× Buffer Solution and resuspended in 200 µL of the same buffer. Subsequently, 5 µL propidium iodide (PI) were added to each sample for identification of cells with compromised membrane integrity. Samples were transferred to flow cytometry tubes and analyzed on the FACSCalibur flow cytometer (Becton Dickinson, San José, CA, USA) equipped with CellQuest PRO Software (BD Biosciences; version 5.1), within 4 h after staining. Annexin V-FITC was excited at 488 nm, with fluorescence detected at 530/30 nm; propidium iodide (PI) was excited at 488 nm and detected at 585/42 nm. Single-stained controls for Annexin V-FITC and PI were included in order to apply spillover correction (compensation) between channels.
For orientation: A flow cytometer gives signals particle by particle.

For data set [2], the system named is Leishmania infantum promastigote forms (MHOM/BR/BH46). The data set can be described thus: In vitro leishmanicidal activity against promastigotes (Neubauer chamber counting). The class given is cell-based. The following applies: for SI (CC50/IC50): CC50 J774 macrophages / IC50 promastigotes; for IC50 / inhibition at 20 µM: Leishmania infantum; for IC50: 72 h, L. infantum promastigotes, linear regression; for inhibition at 20 µM: lowest concentration tested in the promastigote series (20–400 µM). As for the experimental part: For this study, the Leishmania infantum strain MHOM/BR/BH46 was used. It was maintained by cryopreservation in liquid nitrogen, using a preservation solution containing 10% dimethyl sulfoxide (DMSO) and 90% fetal bovine serum (FBS). For the experiments, the strain was reactivated and maintained in continuous culture in modified Schneider’s Drosophila medium, supplemented with 10% heat-inactivated fetal bovine serum (FBS), at a temperature of 26 °C, with subcultures performed every 72 h. The promastigote form was used for the in vitro assays, with growth observed and monitored through parasite counting using a Neubauer chamber (iNCYTO CChip DHC-N01, Cheonan-Si, Republic of Korea).
The in vitro leishmanicidal activity of compounds LT-70, LT-73, LT-75, LT-89, and amphotericin B was determined as described by Aliança et al., with adaptations. Promastigote forms of L. infantum (MHOM/BR/BH46) were maintained in Schneider’s medium supplemented with 10% fetal bovine serum (FBS), incubated at 26 °C. For experiments, parasites were subcultured and grown for 72 h until reaching stationary phase. Subsequently, they were adjusted to a concentration of 1 × 10^6 parasites/mL. Cultures were then incubated in the presence of the tested compounds (20–400 µM) and Amphotericin B was tested from 0.01 to 1.0 µM in preliminary range-finding assays, confirming an IC50 of 0.04 µM, both prepared in DMSO (final DMSO concentration < 1%), as well as a control containing only the diluent. Analyses were performed in technical triplicate and biological duplicate. Cultures were maintained at 26 °C for 72 h, with daily parasite counts performed using a Neubauer chamber. The median inhibitory concentration (IC50) was determined after 72 h by linear regression using SPSS 25.0 software for Mac. All assays were performed in 24-well flat-bottom plates (2 mL final volume per well), with parasite inoculum verified by Neubauer counting chamber. The compounds LT-73 and LT-75 were selected based on their best leishmanicidal performance and respective selectivity index (SI), calculated as the ratio between the cytotoxic concentration for 50% of host cells (CC50) and the IC50 obtained for parasites. […] IC50 and CC50 values were obtained by linear regression using […]. This method has been validated in our previous thiosemicarbazone publications. Each assay was conducted in triplicate across two independent biological experiments performed on separate days to ensure reproducibility and minimize batch effects. MTT was selected for consistency with the validated thiosemicarbazone protocol by Jacob et al., ensuring methodological coherence with prior data.

SMILES strings stand for the structures. “Also recorded” adds a separate entry of the source.

As to `C[C@@H]1[C@H](O)[C@@H](C)/C=C/C=C/C=C/C=C/C=C/C=C/C=C/[C@H](O[C@@H]2O[C@H](C)[C@@H](O)[C@H](N)[C@@H]2O)C[C@@H]2O[C@](O)(C[C@@H](O)C[C@@H](O)[C@H](O)CC[C@@H](O)C[C@@H](O)CC(=O)O[C@H]1C)C[C@H](O)[C@H]2C(=O)O` [Amphotericin B, reference compound], the “Cell death profile by annexin V/PI staining (in words)” value (shortened to “Cell death profile”) in data set [1] was “induced apoptosis as the main form of cell death”. Also, in data set [2], the “SI (CC50/IC50)” value was determined as 350; the IC50 – broadly, the concentration needed to halve the response being measured – amounted to 0.04 µM; the inhibition (usually the share of the control response that was lost under treatment) at 20 µM was determined as 100%.

Regarding `S=C(N/N=C/c1c[nH]c2ncccc12)Nc1ccccc1` [LT-73], in data set [1], the “Cell death profile” value is given as “predominantly induced AV+/PI− staining; also recorded: predominantly induced apoptosis; also recorded: able to induce phosphatidylserine externalization”. In data set [2], the “SI (CC50/IC50)” value is on record as above 5.8, the IC50 was in the range of 10 to 14 µM and the inhibition at 20 µM came to 100%.

`N#Cc1ccc2[nH]cc(/C=N/NC(=S)Nc3ccc(Cl)cc3)c2c1` [LT-75]: the “Cell death profile” value in data set [1] is on record as “predominance of AV+/PI− staining; also recorded: predominantly induced apoptosis; also recorded: able to induce phosphatidylserine externalization”. In data set [2], the “SI (CC50/IC50)” value is reported as above 7.1, the IC50 fell in the range of 10 to 14 µM and the inhibition at 20 µM came to 100%.
